Drawing on patent publication US8283353B2, “Fused ring compound and use thereof” (Takeda Pharmaceutical Company Limited, priority 2009, dated 2012), this text covers IC50 and activation for eight compounds.

The target of one experiment is T1, human AT1 receptor (Homo sapiens, UniProt P30556).
T1 construct: expressed in transfected cells; membrane fraction
T1 sequence (P30556 1-359): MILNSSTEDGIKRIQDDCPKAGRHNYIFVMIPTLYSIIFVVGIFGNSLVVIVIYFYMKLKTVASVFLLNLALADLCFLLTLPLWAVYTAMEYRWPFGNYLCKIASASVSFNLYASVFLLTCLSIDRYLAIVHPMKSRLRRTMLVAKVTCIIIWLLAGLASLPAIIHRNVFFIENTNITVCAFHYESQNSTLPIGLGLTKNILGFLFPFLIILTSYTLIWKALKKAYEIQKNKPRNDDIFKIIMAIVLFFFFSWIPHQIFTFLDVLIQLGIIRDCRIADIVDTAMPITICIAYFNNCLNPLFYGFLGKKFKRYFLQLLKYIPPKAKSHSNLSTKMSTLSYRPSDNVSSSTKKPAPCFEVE
Put plainly: AT1 receptor antagonistic activity: [125I]-angiotensin II binding assay on human AT1 receptor-expressing CHO-K1 cellular membrane fraction. Particulars: 22.5 pM [125I]-angiotensin II, 1 hr room temperature. As for the experimental part: CHO-K1 cell (RIKEN, Japan) capable of stable expression of human AT1 receptor was cultured, recovered, suspended in homogenize buffer (10 mM NaHCO3 (pH 7.4), 5 mM EDTA, 1× Complete EDTA free) [manufactured by Roche, Switzerland], and homogenized. The homogenate was centrifuged at low-speed (900×g, 10 min, 4° C.), and the supernatant was recovered and ultracentrifuged (90,000×g, 1 hr, 4° C.). The supernatant was discarded, and the pellets were resuspended in suspension buffer (50 mM Tris (pH 7.4), 1 mM EDTA, 1× Complete EDTA free).
(9 μg) in the presence of AT1 membrane and test compound in 100 μl, (total reaction volume) of reaction buffer (50 mM Tris (pH 7.4), 10 mM MgCl2 supplemented or not supplemented with 0.3 mg/mL fatty acid-free bovine serum albumin [manufactured by Wako Pure Chemical Industries, Ltd., Japan]). The reaction mixture was incubated in 96 well polypropylene plate for 1 hr at room temperature, and the reaction was quenched by rapid filtration (96 well cell harvester) through a GF/C filter treated with wash buffer (50 mM Tris (pH 7.4)). Subsequently, the filter was washed 5 times with 0.3 mL of ice-cooled wash buffer. […] Total binding was measured in the presence of 1% DMSO and nonspecific binding was measured in the presence of […] Candesartan.

In a further experiment the target is T2, human PPARγ (Homo sapiens, UniProt P37231).
T2 construct: expressed in transfected cells
T2 sequence (P37231 1-477 isoform P37231-2): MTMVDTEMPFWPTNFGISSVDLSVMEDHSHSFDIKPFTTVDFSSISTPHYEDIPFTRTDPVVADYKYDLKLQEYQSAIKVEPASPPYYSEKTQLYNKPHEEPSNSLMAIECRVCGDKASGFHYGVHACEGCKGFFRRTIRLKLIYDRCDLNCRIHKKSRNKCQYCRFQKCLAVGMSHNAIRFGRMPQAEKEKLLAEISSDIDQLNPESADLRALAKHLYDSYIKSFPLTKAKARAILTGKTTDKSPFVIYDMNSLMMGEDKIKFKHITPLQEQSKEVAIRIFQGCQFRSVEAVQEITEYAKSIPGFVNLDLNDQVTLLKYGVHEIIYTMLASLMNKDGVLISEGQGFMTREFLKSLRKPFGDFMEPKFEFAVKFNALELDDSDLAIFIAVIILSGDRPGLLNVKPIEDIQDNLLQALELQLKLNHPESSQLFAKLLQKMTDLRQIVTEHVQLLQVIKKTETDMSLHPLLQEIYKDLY
T2 sequence (P19793 1-462 partner): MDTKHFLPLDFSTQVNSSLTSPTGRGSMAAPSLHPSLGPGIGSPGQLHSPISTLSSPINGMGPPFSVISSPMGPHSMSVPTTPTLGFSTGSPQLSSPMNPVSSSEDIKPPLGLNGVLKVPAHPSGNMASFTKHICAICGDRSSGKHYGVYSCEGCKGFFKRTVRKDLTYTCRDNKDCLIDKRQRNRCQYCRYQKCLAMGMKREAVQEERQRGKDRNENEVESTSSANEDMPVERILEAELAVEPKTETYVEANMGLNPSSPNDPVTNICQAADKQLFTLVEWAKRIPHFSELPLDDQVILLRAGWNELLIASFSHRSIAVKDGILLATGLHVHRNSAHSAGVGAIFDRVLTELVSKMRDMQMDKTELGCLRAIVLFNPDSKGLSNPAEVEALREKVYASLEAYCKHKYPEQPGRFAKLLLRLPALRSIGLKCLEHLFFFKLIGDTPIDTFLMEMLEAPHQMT
Put plainly: PPARγ agonistic activity: luciferase reporter assay in PPARγ:RXRα:4ERPP/CHO-K1 cells. The class given is cell-based. The following applies: CHO-K1, test compound 10^−6 M; luciferase activity of control compound X (1 μM) = 100%, non-administration group = 0%. From the text: A CHO-K1 cell cultured in a 150 cm^2 cell culture flask [manufactured by Corning Costar Corporation, USA] comprising Ham's F12 medium [manufactured by INVITROGEN, USA] supplemented with 10% fetal bovine serum [manufactured by INVITROGEN, USA] was taken off by treating with 0.5 g/L trypsin-0.2 g/L EDTA (ethylenediamine tetraacetate) [manufactured by Life Technologies, Inc., USA], and then the cell was washed with PBS (Phosphate-buffered saline) [manufactured by INVITROGEN, USA], centrifuged (1000 rpm, 5 minutes) and suspended in PBS. Subsequently, DNA was introduced into the cell under the conditions shown below using GENE PULSER [manufactured by Bio-Rad Laboratories, USA].
Namely, to a cuvette having a 0.4 cm gap were added 8×10^6 cells and 10 μg of plasmid pVgRXR2-hPPARγ obtained in the above-mentioned (4) and 10 μg of reporter plasmid pGL3-4ERPP-TK neo obtained in the above-mentioned (3), which was subjected to electroporation at the voltage of 0.25 kV under the capacitance of […] Subsequently, the cell was transferred into a F12 medium comprising 10% fetal bovine serum and cultured for 24 hours, and then the cell was taken off again and centrifuged. Then, the pellet was suspended in Ham's F12 medium comprising 10% fetal bovine serum supplemented with 500 μg/ml of Geneticin [manufactured by INVITROGEN, USA] and 250 μg/ml of Zeocin [manufactured by INVITROGEN, USA]. The obtained suspension was diluted to the density of 10^4 cells/ml and inoculated in a 96-well plate [manufactured by Corning Costar Corporation, USA], which was cultured in a CO2 gas incubator at 37° C., whereby obtaining a Geneticin- and Zeocin-resistant transformant.
Subsequently, after the transformed cell line thus obtained was cultured in a 24-well plate [manufactured by Corning Costar Corporation, USA], a cell line in which expression of the luciferase was induced, i.e., PPARγ:RXRα:4ERPP/CHO-K1 cell was selected by the addition of 10 μM pioglitazone hydrochloride.
PPARγ:RXRα:4ERPP/CHO-K1 cells obtained in the above-mentioned (5) were cultured in F12 medium [manufactured by INVITROGEN, USA] containing 10% fetal bovine serum [manufactured by MOREGATE, Australia], seeded in a 96 well half-area white plate [manufactured by Corning Coster Corporation, USA] at 5×10^3 cells/well, and cultured in a CO2 incubator at 37° C. overnight.
Then, the medium was removed from the 96 well half-area white plate, hamF12 medium containing 0.1% fatty acid-free bovine serum albumin (BSA) (45 μl) and a test compound (5 μl) were added, and the mixture was cultured in the CO2 incubator at 37° C. for 1 day. After removing the medium, Picagene 7.5 [manufactured by Dai Nippon Inki, Japan] (20 μl) diluted 2-fold with HBSS (HANKS' BALANCED SALT SOLUTION) [manufactured by BIO […], USA] was added, and the mixture was stirred. Using 1420 ARVO Multilabel Counter [manufactured by PerkinElmer, USA], luciferase activity was measured. The percentage (%) was calculated from the luciferase activity of the test compound when the luciferase activity of the control compound (compound X: 5-[3-(4-{[2-(2-furyl)-5-methyl-1,3-oxazol-4-yl]methoxy}-3-methoxyphenyl)propyl]-1,3-oxazolidine-2,4-dione) (1 μM) was taken as 100% and the luciferase activity of the test compound non-administration group was taken as 0%.

The structures appear in SMILES notation.

Turning to `CCCc1c(Cc2ccc(-c3ccccc3-c3noc(=O)[nH]3)cc2)c(=O)n(C2CCC(C(C)(C)O)CC2)c2ncnn12` (stereo not shown) [Example 376, 4-[4-(1-hydroxy-1-methylethyl)cyclohexyl]-6-{[2′-(5-oxo-4,5-dihydro-1,2,4-oxadiazol-3-yl)biphenyl-4-yl]methyl}-7-propyl[1,2,4]triazolo[1,5-a]pyrimidin-5(4H)-one], on human AT1 receptor, the IC50 turned out to be 1.2 nM. This compound showed an activation at 1 µM on human PPARγ of 19%.

In turn, `CCCc1c(Cc2ccc(-c3ccccc3-c3noc(=O)[nH]3)cc2)c(=O)n([C@H]2CC[C@H](OCC(C)(O)CC)CC2)c2ncnn12` (stereo partly drawn) [Example 345, 4-[trans-4-(2-hydroxy-2-methylbutoxy)cyclohexyl]-6-{[2′-(5-oxo-4,5-dihydro-1,2,4-oxadiazol-3-yl)biphenyl-4-yl]methyl}-7-propyl[1,2,4]triazolo[1,5-a]pyrimidin-5(4H)-one] registered an IC50 at human AT1 receptor of 2.1 nM. Further, the activation at 1 µM on human PPARγ worked out at 18%.

In the case of `CCCc1c(Cc2ccc(-c3ccccc3-c3noc(=O)[nH]3)cc2F)c(=O)n([C@H]2CC[C@H](OC(CC)C(C)(C)O)CC2)c2ncnn12` (stereo partly drawn) [Example 355, 4-[trans-4-(1-ethyl-2-hydroxy-2-methylpropoxy)cyclohexyl]-6-{[3-fluoro-2′-(5-oxo-4,5-dihydro-1,2,4-oxadiazol-3-yl)biphenyl-4-yl]methyl}-7-propyl[1,2,4]triazolo[1,5-a]pyrimidin-5(4H)-one], the IC50 at human AT1 receptor was found to be 1.7 nM. On human PPARγ, this compound registered an activation at 1 µM of 25%.

`CCCc1c(Cc2ccc(-c3ccccc3-c3noc(=O)[nH]3)cc2)c(=O)n(C2CCOCC2)c2ncnn12` [Example 109, 6-{[2′-(5-oxo-4,5-dihydro-1,2,4-oxadiazol-3-yl)biphenyl-4-yl]methyl}-7-propyl-4-(tetrahydro-2H-pyran-4-yl)[1,2,4]triazolo[1,5-a]pyrimidin-5(4H)-one] came in with an IC50 at human AT1 receptor of 2.2 nM. The compound further yielded an activation at 1 µM on human PPARγ of 16%.

The compound `CCCc1c(Cc2ccc(-c3ccccc3-c3noc(=O)[nH]3)cc2)c(=O)n([C@H]2CC[C@@H](OCCO)CC2)c2nc(C)nn12` [Example 288, 4-[cis-4-(2-hydroxyethoxy)cyclohexyl]-2-methyl-6-{[2′-(5-oxo-4,5-dihydro-1,2,4-oxadiazol-3-yl)biphenyl-4-yl]methyl}-7-propyl[1,2,4]triazolo[1,5-a]pyrimidin-5(4H)-one] displayed an IC50 at human AT1 receptor of 2.7 nM. The compound also yielded an activation at 1 µM at human PPARγ of 17%.

For the compound `CCCc1c(Cc2ccc(-c3ccccc3-c3noc(=O)[nH]3)cc2)c(=O)n([C@H]2CC[C@H](Oc3ccon3)CC2)c2ncnn12` [Example 282, 4-[trans-4-(isoxazol-3-yloxy)cyclohexyl]-6-{[2′-(5-oxo-4,5-dihydro-1,2,4-oxadiazol-3-yl)biphenyl-4-yl]methyl}-7-propyl[1,2,4]triazolo[1,5-a]pyrimidin-5(4H)-one], the IC50 at human AT1 receptor came out at 2.2 nM. Besides, the activation at 1 µM at human PPARγ amounted to 53%.

`CCCc1c(Cc2ccc(-c3ccccc3-c3noc(=O)[nH]3)cc2)c(=O)n([C@H]2CC[C@H](OCC(C)(O)CF)CC2)c2ncnn12` (stereo partly drawn) [Example 337, 4-[trans-4-(3-fluoro-2-hydroxy-2-methylpropoxy)cyclohexyl]-6-{[2′-(5-oxo-4,5-dihydro-1,2,4-oxadiazol-3-yl)biphenyl-4-yl]methyl}-7-propyl[1,2,4]triazolo[1,5-a]pyrimidin-5(4H)-one] yielded an IC50 on human AT1 receptor of 1.9 nM. Further, the activation at 1 µM on human PPARγ came out at 24%.

`CCCc1c(Cc2ccc(-c3ccccc3-c3noc(=O)[nH]3)cc2)c(=O)n([C@H]2CC[C@H](OC(C)C(C)(C)O)CC2)c2ncnn12` (stereo partly drawn) [Example 300, 4-[trans-4-(2-hydroxy-1,2-dimethylpropoxy)cyclohexyl]-6-{[2′-(5-oxo-4,5-dihydro-1,2,4-oxadiazol-3-yl)biphenyl-4-yl]methyl}-7-propyl[1,2,4]triazolo[1,5-a]pyrimidin-5(4H)-one] showed a 50% inhibitory concentration (IC50) on human AT1 receptor of 1.8 nM. Moreover, on human PPARγ, the activation at 1 µM was determined as 16%.
